Test results: patent publication US7947703B2, “Phenanthridinium derivatives as DNA binding agents” (University Court of the University of Glasgow, priority 2003, dated 2011)
“Also recorded” adds a separate entry of the source. Marks after values point to notes of the source that are not given here.

Key:
[1] = system: Cisplatin resistant cell line MCP1; assay: growth (tetrazolium dye-based microtitration) cytotoxicity assay, MCP1; format: cell-based, human; settings: for IC50: cisplatin-resistant line, 24 hours drug exposure, 3 day recovery, mean±SEM of triplicate plates; for RF2: rapport of the IC50 between A2780 and MCP1, the lower RF the better
Protocol: (§1) Compounds were tested in a growth assay with a 24 hours drug exposure and a 3 day recovery period. Cell lines used were human ovarian tumour cell line A2780 and 2 Cisplatin resistant derivatives cell lines A27080/cp70 and MCP1. IC50 is the concentration of drug required to reduce the surviving cell number to 50% of that of the control untreated cells. Results are from one experiment and are the mean±SEM of the triplicate plates.
(§2) DIP cytotoxicity was determined by a tetrazolium dye-based microtitration assay. DNA affinity measurements of DIPs were undertaken using Isothermal Titration Calorimetry (ITC).

[2] = system: Cisplatin resistant cell line A2780/cp70; assay: growth (tetrazolium dye-based microtitration) cytotoxicity assay, A2780/cp70; format: cell-based, human; settings: for IC50: cisplatin-resistant line, 24 hours drug exposure, 3 day recovery, mean±SEM of triplicate plates; for RF1: rapport of the IC50 between A2780 and A2780/cp70, the lower RF the better
Protocol: as §1, §2

[3] = system: human ovarian tumour cell line A2780; assay: growth (tetrazolium dye-based microtitration) cytotoxicity assay, A2780; format: cell-based; settings: for IC50: cisplatin-sensitive line, 24 hours drug exposure, 3 day recovery, mean±SEM of triplicate plates; for cytotoxicity (in words): overall statement across A2780, A2780/cp70 and MCP1
Protocol: as §1, §2

Salmon DNA = assay: DNA affinity by Isothermal Titration Calorimetry (ITC), Salmon DNA; format: binding; design: key to Ka Salmon DNA: *^1: No measurable binding via ITC
Protocol: as §2

Calf DNA = assay: DNA affinity by Isothermal Titration Calorimetry (ITC), Calf DNA; format: binding; design: key: *^1: No measurable binding via ITC
Protocol: as §2

Compound	IC50 ([1]; Homo sapiens) [µM]	RF2 [1]	IC50 ([2]; Homo sapiens, A2780/CP70) [µM]	RF1 [2]	cytotoxicity on cisplatin-sensitive cell line A2780 (in words) [3]	IC50 ([3]; Homo sapiens, A2780) [µM]	cytotoxicity (in words) [3]	Ka Salmon DNA (Salmon DNA)	Ka Calf DNA (Calf DNA)	DNA affinity (in words) (Salmon DNA; DNA source not given)	IC50 [1] [µM]	IC50 [2] [µM]	IC50 [3] [µM]
COC(=O)[C@@H](Cc1ccccc1)N1CC[n+]2c1c1ccccc1c1ccccc12.[Br-] [LS2-6]	34.2 ± 4.3	1.1	26.4 ± 3.3	0.9	moderate cytotoxicity	31.2 ± 4.2	moderate activity; also recorded: moderate cytotoxicity in the three lines						
CCc1ccc(N2CC[n+]3c2c2ccccc2c2ccccc23)cc1.[Br-] [LS2-11]	1.11 ± 0.16	0.7	1.25 ± 0.14	0.8		1.54 ± 0.12							
COc1ccc(N2CC[n+]3c2c2ccccc2c2ccccc23)cc1.[Br-] [AP3-83]	0.5 ± 0.04	0.3	1.1 ± 0.13	0.8		1.45 ± 0.15		3.73 ± 1827 M^−1 (10^4)	3.46 ± 1726 M^−1 (10^4)				
[Br-].c1ccc2c(c1)c1[n+](c3ccccc23)CCN1C1CC1 [AP3-80]	5.68 ± 0.86	1.1	4.54 ± 0.7	0.9		5.07 ± 1.06							
[Br-].[Br-].[Br-].c1ccc2c(c1)c1[n+](c3ccccc23)CCN1[C@H]1C[C@@H](N2CC[n+]3c2c2ccccc2c2ccccc23)C[C@@H](N2CC[n+]3c2c2ccccc2c2ccccc23)C1 [AP3-42]	9.44 ± 0.58	1.2	7.29 ± 0.38	0.9		8.02 ± 1.14							
CC[n+]1c(-c2ccccc2)c2cc(N)ccc2c2ccc(N)cc21.[Br-] [EtBr, ethidium bromide, reference compound]	0.45 ± 0.008	1.5	0.658 ± 0.118	2.2		0.3 ± 0.039		12.9 ± 4533 M^−1 (10^4)	9.31 ± 3353 M^−1 (10^4)				
[Br-].c1ccc2c(c1)c[n+](CCN1CCCCC1)c1ccccc21 [AP4-20]	6.3 ± 0.09	0.6	16.5 ± 0.8	1.7		9.77 ± 1.04							
Br.Br.Br.O=C(CN1CC[n+]2c1c1ccccc1c1ccccc12)N1CCCN(C(=O)CN2CC[n+]3c2c2ccccc2c2ccccc23)CCCN(C(=O)CN2CC[n+]3c2c2ccccc2c2ccccc23)CCC1 [AP9-82]	7.59 ± 0.32	0.5	4.57 ± 0.18	0.3		15.6 ± 2.76							
COc1ccc(CN2CC[n+]3c2c2ccccc2c2cc(Br)ccc23)cc1.[Br-] [LS1-72]	0.997 ± 0.034	1.2	1.67 ± 0.18	2		0.823 ± 0.219							
[Br-].[Br-].[Br-].c1ccc2c(c1)c[n+](CCN1CCCN(CC[n+]3cc4ccccc4c4ccccc43)CCCN(CC[n+]3cc4ccccc4c4ccccc43)CCC1)c1ccccc21 [AP4-55]	1.13 ± 0.12	0.5	1.59 ± 0.15	0.7		2.28 ± 0.23	good cytotoxicity						
[Br-].c1ccc(C(CCN2CC[n+]3c2c2ccccc2c2ccccc23)c2ccccc2)cc1 [LS2-10]	2.03 ± 0.31	1	1.73 ± 0.12	0.8		2.06 ± 0.34							
COc1ccc(CN2CC[n+]3c2ccc2ccccc23)cc1 [AP4-44, 3-(4-Methoxy-benzyl)-2,3-dihydro-1H-imidazo[1,2-a]quinolin-10-ylium bromide]	11 ± 1	0.4	12.6 ± 0.6	0.4		30.9 ± 2.5	much less cytotoxicity	*^1	*^1	cancel any measurable DNA affinity			
COc1ccc([C@@H](C)N2CC[n+]3c2c2ccccc2c2ccccc23)cc1 [AP6-96, 1-[1-(4-Methoxy-phenyl)-ethyl]-2,3-dihydro-1H-imidazo[1,2-f]phenanthridin-4-ylium bromide]	0.53 ± 0.04	0.5	1.15 ± 0.07	1.1		1.03 ± 0.06		5.17 ± 1948 M^−1 (10^4)	4.14 ± 2685 M^−1 (10^4)				
[Br-].c1ccc(CN2CC[n+]3c2c2ccccc2c2ccccc23)cc1 [AP9-45]	1.29 ± 0.11	0.6	2.26 ± 0.23	1.0		2.32 ± 0.33							
COc1ccc(CN2CC[n+]3c2c2ccccc2c2ccccc23)cc1.[Br-] [AP3-56, 1-(4-Methoxy-benzyl)-2,3-dihydro-1H-imidazo[1,2-f]phenanthridinium bromide]	1.06 ± 0.06	0.7	1.56 ± 0.06	1.0		1.53 ± 0.09							
[Br-].[Br-].c1ccc2c(c1)c1[n+](c3ccccc23)CCN1CCN1CCN(CCN2CC[n+]3c2c2ccccc2c2ccccc23)CC1 [AP9-5]	3.94 ± 0.32	0.2	5.65 ± 0.2	0.3		18.3 ± 2.8							
COC(=O)CN1CC[n+]2c1c1ccccc1c1ccccc12.[Br-] [LS1-8]	33 ± 1.6	0.7	54.9 ± 3.4	1.1		48.4 ± 8.5	moderate activity						
Br.Br.Br.Br.c1ccc2c(c1)c1[n+](c3ccccc23)CCN1CC[N+]12CC[N+](CCN3CC[n+]4c3c3ccccc3c3ccccc34)(CC1)CC2 [AP11-36]	3.07 ± 0.52	1.3	3.4 ± 0.23	1.5		2.34 ± 0.25							
CCCN1CC[n+]2c1c1ccccc1c1ccccc12 [AP10-22, 1-Propyl-2,3-dihydro-1H-imidazo[1,2-f]phenanthridin-4-ylium bromide]	2.86 ± 0.32	0.4	5.11 ± 0.19	0.8		6.71 ± 0.86	the least active of all the alkyl DIP derivatives	3.11 ± 2203 M^−1 (10^4)	3.67 ± 1310 M^−1 (10^4)				
[Br-].[Br-].c1ccc2c(c1)c1[n+](c3ccccc23)CCN1CCNCCN1CC[n+]2c1c1ccccc1c1ccccc12 [LS1-81]	25.4 ± 2.9	0.8	15.1 ± 0.9	0.5		32.4 ± 2							
O=C(CN1CC[n+]2c1c1ccccc1c1ccccc12)N1CCN(C(=O)CN2CC[n+]3c2c2ccccc2c2ccccc23)CC1.[Br-].[Br-] [AP8-66]	6.84 ± 0.89	0.6	15.6 ± 2.1	1.3		11.7 ± 1.1							
N.N.[Cl][Pt][Cl] [Cisplatin, reference compound]		1.7		5.8							0.43 ± 0.06	1.46 ± 0.04	0.25 ± 0.02
Br.Br.c1ccc2c(c1)c[n+](CCN1CCN(CC[n+]3cc4ccccc4c4ccccc43)CC1)c1ccccc21 [AP4-48]	11.7 ± 1.51	0.6	16.8 ± 0.54	0.9		18.4 ± 1.23							
COc1ccc2c(c[n+](C)c3c4cc5c(cc4ccc23)OCO5)c1OC.[Cl-] [Chelerythrine, reference compound]	2.29 ± 0.15	0.5	1.79 ± 0.02	0.4		4.63 ± 0.52							
